Common to all, as to type: biochemical
One assay addresses T1, HIPK1(h) (Homo sapiens, UniProt Q86Z02).
T1 construct: purchased Merck Millipore (KinaseProfiler service)
The experiment in a line: HIPK1 KinaseProfiler radiometric protein kinase assay. The note with it: 45 μM ATP, 40 minutes at room temperature. The protocol: (§1) In vitro essays were performed by the company Merck Millipore in their KinaseProfiler radiometric protein kinase assay as paid commercial service. The compounds IC50 values for inhibition of individual protein kinases were determined. Dose-response curves were plotted from inhibition data generated, each in duplicate, from 10 point serial dilutions of inhibitory compounds. Concentration of compound was plotted against % kinase activity. To generate IC50 values, the dose-response curves were fitted to a standard sigmoidal curve and IC50 values were derived by standard nonlinear regression analysis.
(§2) All tested compounds were prepared in 100% DMSO to final assay concentrations either 0.5 mM (for the concentration row A, see below) or 0.05 mM (for the concentration row B). This working stock of the compound was added to the assay well as the first component in the reaction, followed by the remaining components as detailed below. The stock solution was added to the individual assay wells in such amounts that the concentrations of the compound were either in the row A (0.001 μM, 0.003 μM, 0.01 μM, 0.03 μM, 0.1 μM, 0.3 μM, 1.0 μM, 3.0 μM, and 10.0 μM) or in the row B (0.0001 μM, 0.0003 μM, 0.001 μM, 0.003 μM, 0.01 μM, 0.03 μM, 0.1 μM, 0.3 μM, and 1.0 μM). There was no pre-incubation step between the compound and the kinase prior to initiation of the reaction.
(§3) The positive control wells contained all components of the reaction, except the compound of interest; however, DMSO (at a final concentration of 2%) was included in these wells to control for solvent effects. The blank wells contained all components of the reaction, with staurosporine as a reference inhibitor replacing the compound of interest. This abolished kinase activity and established the base-line (0% kinase activity remaining).
HIPK1(h) was diluted in the buffer (20 mM MOPS, 1 mM EDTA, 0.01% Brij-35, 5% Glycerol, 0.1% β-mercaptoethanol, 1 mg/mL BSAs) to the concentration of 1.01 mg/mL prior to addition to the reaction mix.
(§4) The above stock solution of HIPK1(h) was added to a mixture containing 8 mM MOPS pH 7.0, 0.2 mM EDTA, and 0.33 mg/mL myelin basic protein in such amount that the resulting concentration of HIPK1(h) was 4.7 nM. This mixture was added to the stock solution of the tested compound. The reaction was initiated by the addition of the MgATP mix in such amount that the resulting concentration of Mg acetate in the reaction mixture was 10 mM and [γ-^33P-ATP] (specific activity approx. 500 cpm/pmol) was 45 μM. After incubation for 40 minutes at room temperature, the reaction was stopped by the addition of 3% phosphoric acid solution. 10 μL of the reaction was then spotted onto a P30 filtermat and washed three times for 5 minutes in 75 mM phosphoric acid and once in methanol prior to drying and scintillation counting.

Another assay deals with T2, CLK4 (h) (Homo sapiens, UniProt Q9HAZ1).
T2 construct: purchased Merck Millipore (KinaseProfiler service)
T2 sequence (Q9HAZ1 whole entry): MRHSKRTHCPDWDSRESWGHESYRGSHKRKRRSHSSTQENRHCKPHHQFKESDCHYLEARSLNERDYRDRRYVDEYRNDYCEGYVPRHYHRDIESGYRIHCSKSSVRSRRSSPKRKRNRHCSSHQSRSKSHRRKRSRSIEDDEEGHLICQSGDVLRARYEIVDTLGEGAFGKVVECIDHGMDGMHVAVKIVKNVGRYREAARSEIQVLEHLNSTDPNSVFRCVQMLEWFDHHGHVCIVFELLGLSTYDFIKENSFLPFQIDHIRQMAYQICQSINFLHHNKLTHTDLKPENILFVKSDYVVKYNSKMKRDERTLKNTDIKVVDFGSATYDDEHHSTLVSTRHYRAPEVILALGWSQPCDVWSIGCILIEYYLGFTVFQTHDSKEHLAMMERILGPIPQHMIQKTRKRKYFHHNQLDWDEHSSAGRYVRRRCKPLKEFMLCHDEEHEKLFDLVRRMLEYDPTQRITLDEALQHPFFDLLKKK
The experiment in a line: CLK4 KinaseProfiler radiometric protein kinase assay. Particulars: 15 μM ATP, 40 minutes at room temperature. The protocol:
as §1, §2, §3
CLK4 (h) was diluted in the buffer (20 mM MOPS, 1 mM EDTA, 0.01% Brij-35, 5% Glycerol, 0.1% β-mercaptoethanol, 1 mg/mL BSAs) to the concentration of 1.01 mg/mL prior to addition to the reaction mix.
as §4, with “CLK4(h)” for “HIPK1(h)”, “200 μM […](p) EDEEE” for “0.33 mg/mL myelin basic protein”, “140.8” for “4.7”, “15” for “45”

In a further assay the target is T3, CLK2 (h) (Homo sapiens, UniProt P49760).
T3 construct: purchased Merck Millipore (KinaseProfiler service)
T3 sequence (P49760 whole entry): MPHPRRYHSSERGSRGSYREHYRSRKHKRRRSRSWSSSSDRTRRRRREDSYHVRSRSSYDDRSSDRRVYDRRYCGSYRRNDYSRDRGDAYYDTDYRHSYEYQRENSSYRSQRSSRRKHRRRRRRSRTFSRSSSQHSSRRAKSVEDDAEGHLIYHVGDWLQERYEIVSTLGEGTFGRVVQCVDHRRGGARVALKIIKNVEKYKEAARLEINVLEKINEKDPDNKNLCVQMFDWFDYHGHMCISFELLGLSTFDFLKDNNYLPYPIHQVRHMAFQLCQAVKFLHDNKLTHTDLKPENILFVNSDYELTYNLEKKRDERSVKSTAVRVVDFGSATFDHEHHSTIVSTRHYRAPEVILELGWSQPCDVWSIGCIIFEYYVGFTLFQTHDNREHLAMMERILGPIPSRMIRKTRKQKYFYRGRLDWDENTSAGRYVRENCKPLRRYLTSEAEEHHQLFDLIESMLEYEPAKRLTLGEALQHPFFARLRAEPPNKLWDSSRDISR
Kind of assay: CLK2 KinaseProfiler radiometric protein kinase assay. The protocol:
as §1, §2, §3
CLK2 (h) was diluted in the buffer (20 mM MOPS (3-(N-morpholino)propanesulfonic acid), 1 mM EDTA (ethylendiaminotetraacetic acid), 0.01% Brij-35 (detergent), 5% Glycerol, 0.1% β-mercaptoethanol, 1 mg/mL BSAs) to the concentration of 1.01 mg/mL prior to addition to the reaction mix.
as §4, with “CLK2(h)” for “HIPK1(h)”, “20 μM […](p) EDEEE” for “0.33 mg/mL myelin basic protein”, “2.1” for “4.7”, “15” for “45”

Another assay deals with T4, DYRK2 (Homo sapiens, UniProt Q92630).
T4 construct: purchased Merck Millipore (KinaseProfiler service)
T4 sequence (Q92630 1-601): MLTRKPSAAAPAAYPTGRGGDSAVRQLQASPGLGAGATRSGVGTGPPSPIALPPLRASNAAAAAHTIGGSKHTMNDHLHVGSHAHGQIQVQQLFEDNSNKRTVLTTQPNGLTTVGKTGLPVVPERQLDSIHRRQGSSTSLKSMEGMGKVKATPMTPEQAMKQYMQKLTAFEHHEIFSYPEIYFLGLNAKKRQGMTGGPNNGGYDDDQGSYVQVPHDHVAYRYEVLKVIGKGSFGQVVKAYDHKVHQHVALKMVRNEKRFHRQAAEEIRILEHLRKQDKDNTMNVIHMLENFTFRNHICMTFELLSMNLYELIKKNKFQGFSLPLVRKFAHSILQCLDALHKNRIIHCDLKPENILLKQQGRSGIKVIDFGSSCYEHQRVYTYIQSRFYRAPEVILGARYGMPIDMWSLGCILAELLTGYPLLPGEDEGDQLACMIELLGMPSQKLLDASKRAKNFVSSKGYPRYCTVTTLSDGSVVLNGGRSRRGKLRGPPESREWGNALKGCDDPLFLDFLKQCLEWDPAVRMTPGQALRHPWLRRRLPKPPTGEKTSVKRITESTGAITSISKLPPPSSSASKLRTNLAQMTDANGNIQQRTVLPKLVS
The experiment in a line: DYRK2 KinaseProfiler radiometric protein kinase assay. The protocol:
as §1, §2, §3

Each structure is given as a SMILES string. Like-named read-outs stand apart in the source and are kept apart here.

T1 sequence (Q86Z02 whole entry): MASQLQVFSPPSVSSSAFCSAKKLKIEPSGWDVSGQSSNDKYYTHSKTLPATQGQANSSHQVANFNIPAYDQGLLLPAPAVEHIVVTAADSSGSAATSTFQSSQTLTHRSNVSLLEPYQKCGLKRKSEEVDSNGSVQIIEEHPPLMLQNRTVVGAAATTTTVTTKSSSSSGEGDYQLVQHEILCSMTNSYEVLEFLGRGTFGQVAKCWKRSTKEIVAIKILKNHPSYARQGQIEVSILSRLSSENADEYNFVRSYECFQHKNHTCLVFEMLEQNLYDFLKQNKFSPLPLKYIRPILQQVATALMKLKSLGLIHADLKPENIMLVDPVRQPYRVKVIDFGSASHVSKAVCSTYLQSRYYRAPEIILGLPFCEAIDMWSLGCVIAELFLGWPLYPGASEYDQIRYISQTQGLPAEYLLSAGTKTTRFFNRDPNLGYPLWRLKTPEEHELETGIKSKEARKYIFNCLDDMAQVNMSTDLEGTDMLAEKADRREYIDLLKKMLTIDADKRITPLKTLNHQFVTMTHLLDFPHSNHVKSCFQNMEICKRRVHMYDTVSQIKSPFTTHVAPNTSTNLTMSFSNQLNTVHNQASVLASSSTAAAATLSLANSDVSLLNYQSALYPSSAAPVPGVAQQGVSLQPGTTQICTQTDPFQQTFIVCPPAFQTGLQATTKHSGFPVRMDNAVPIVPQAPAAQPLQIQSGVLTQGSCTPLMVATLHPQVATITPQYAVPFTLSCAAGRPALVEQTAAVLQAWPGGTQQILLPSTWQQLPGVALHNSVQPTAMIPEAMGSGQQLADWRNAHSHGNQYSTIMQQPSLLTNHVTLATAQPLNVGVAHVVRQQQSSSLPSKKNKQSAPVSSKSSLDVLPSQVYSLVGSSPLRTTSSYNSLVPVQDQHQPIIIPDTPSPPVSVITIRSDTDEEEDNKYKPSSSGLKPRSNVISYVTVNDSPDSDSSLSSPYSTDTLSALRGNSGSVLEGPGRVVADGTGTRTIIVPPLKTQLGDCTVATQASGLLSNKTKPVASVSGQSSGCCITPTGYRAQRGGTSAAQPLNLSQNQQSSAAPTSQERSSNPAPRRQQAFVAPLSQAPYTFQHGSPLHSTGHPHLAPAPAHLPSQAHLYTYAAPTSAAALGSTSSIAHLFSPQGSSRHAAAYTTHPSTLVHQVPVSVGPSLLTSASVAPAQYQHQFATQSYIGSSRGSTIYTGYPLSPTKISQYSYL

For `Cn1cc(-c2ccc3occ(-c4ccccc4)c3n2)cn1` [Preparative Example 6A], the half-maximal inhibitory concentration (IC50) (as a rule, the midpoint of a concentration-inhibition curve) was less than 1000 nM on HIPK1(h); less than 100 nM against CLK4 (h); less than 1000 nM at CLK2 (h) (radiometric, 15 μM ATP, 40 minutes at room temperature, read-out: CLK2 IC50); less than 5000 nM against DYRK2.
In the case of `c1ccc(-c2coc3ccc(-c4cn[nH]c4)nc23)cc1` [Preparative Example 9], the 50% inhibitory concentration (IC50) at HIPK1(h) is less than 100 nM; on CLK4 (h), less than 100 nM; against CLK2 (h), less than 100 nM; against DYRK2, less than 5000 nM.
